Series [1] is described as follows: Bidirectional permeability measurements in MDCK-MDR1 monolayers. The format is in vitro ADME, canine. The conditions noted are these: dog, MDCK-MDR1, 2 h. How it is done: MDCK-MDR1 cells at passage 17 were cultured in DMEM supplemented with 10% FBS, 1% glutamine, 100 U/mL penicillin/streptomycin, 1% NEAA, and 1 mmol/L sodium pyruvate. The cells were incubated overnight at 37°C with 5% CO2 and a relative humidity of 90%. Once the cells reached approximately 80% confluence, they were treated with a 0.25% trypsin/EDTA solution to dissociate the cells. Subsequently, the cells were seeded at a density of 5 × 10^5 cells/cm^2 in Millicell-96 well plates (Millipore, Burlington, USA). Prior to conducting the experiments, the integrity of the cell monolayer was confirmed by measuring transepithelial electrical resistance (TEER) using a Millicell ERS® meter (Millipore, Burlington, USA). A TEER value greater than 400 Ω cm^2 was required to ensure the formation and preservation of tight junctions.
Cell monolayers were preincubated with HBSS for 15 min at 37°C. To measure the A→B (apical side to basolateral side of monolayer) transporter, 400 μL of ammoxetine solution was added to the A-side (donor chamber), and 1,200 μL of HBSS solution was added to the B-side (receiver chamber). The B→A transporter was evaluated by adding 1,200 μL of ammoxetine solution to the B-side (donor chamber) and 400 μL of HBSS solution to the A-side (receiver chamber). At 0 h, 50 μL of the solution was taken from the donor chamber, and aliquots of 50 μL were taken from the receiver chamber at 15, 30, 45, 60, 90, and 120-min time intervals. The collected aliquots were immediately replaced with equal volumes of fresh blank HBSS. Ammoxetine transport was studied at three concentrations: 0.2, 1, and 5 μg/mL, with each concentration evaluated in triplicate. […] Ammoxetine samples collected from the receiver chambers at different time points were mixed with 150 μL of acetonitrile/methanol (1:1, v/v) solution containing 50 ng/mL L-phencynonate (IS). The mixtures were then vortexed for 1 min and centrifuged for 10 min at 13,800×g. The supernatants were analyzed using an LC-MS-MS method.
The apparent permeability coefficient ( Papp , cm/s) values for ammoxetine were determined using Equation 1: Papp=dQ/dt/A×C0 (1)
Here, dQ/dt represents the amount of drug transported to the receiver chamber within a specific time period, A is the surface area of the cell monolayer (=0.33 cm^2), and C0 is the initial concentration of ammoxetine.
In general, the involvement of a P-gp-mediated efflux mechanism was indicated if the efflux ratio ( ER ) value exceeded 1.5 ([Langthaler et al., 2024]). […]

The target in a further series is CYP 3A4 (Homo sapiens, UniProt P08684). Nature of the series: CYP inhibition, cocktail-substrate method in HLM. The conditions noted are these: probes testosterone and midazolam. More on the design: 0.5 mg/mL HLM, 1 mmol/L NADPH, and a cocktail of 10 probe substrates for 9 CYP isoforms; tissue BD (Woburn, USA); host or cells: pooled human liver microsomes. The format is in vitro ADME. How it is done: (§1) To assess the CYP inhibition profiling of ammoxetine, a high-throughput assay based on the cocktail-substrate method was performed, as described in the literature ([Kim et al., 2005]; [Kozakai et al., 2014]). Microsomal incubations were conducted in triplicate for 30 min at 37°C in a reaction system (200 μL) consisting of […] potassium phosphate buffer (pH 7.4), 0.5 mg/mL HLM, 1 mmol/L NADPH, and a cocktail of 10 probe substrates for 9 CYP isoforms. The final concentration of each CYP-specific substrate was chosen to be close to the Michaelis-Menten constant (K m ) value of the respective substrate ([Kim et al., 2005]; [Lee et al., 2024]). For instance, phenacetin (CYP 1A2) was used at a concentration of 50 μmol/L, coumarin (CYP 2A6) at 5 μmol/L, bupropion (CYP 2B6) at 50 μmol/L, amodiaquine (CYP 2C8) at 5 μmol/L, tolbutamide (CYP 2C9) at 100 μmol/L, S-mephenytoin (CYP 2C19) at 100 μmol/L, dextromethorphan (CYP 2D6) at 5 μmol/L, chlorzoxazone (CYP 2E1) at 50 μmol/L, and testosterone and midazolam (CYP 3A4) at 50 μmol/L. Ammoxetine was evaluated at five concentrations: 0.1, 1, 10, 50, and 100 μmol/L. Additionally, a blank control without ammoxetine was included. The incubation was terminated by adding an equal volume of ice-cold acetonitrile/methanol (1:1, v/v) along with the IS, dexmedetomidine (1 ng/mL). After a 20-fold dilution, the mixture was centrifuged at 13,800×g for 10 min at 4°C. The supernatants were used to measure the levels of metabolites from the respective probe substrates using an LC-MS-MS method. The half-maximal inhibitory concentration (IC50) values were subsequently calculated.
Sequence of CYP 3A4 (P08684 whole entry, canonical isoform): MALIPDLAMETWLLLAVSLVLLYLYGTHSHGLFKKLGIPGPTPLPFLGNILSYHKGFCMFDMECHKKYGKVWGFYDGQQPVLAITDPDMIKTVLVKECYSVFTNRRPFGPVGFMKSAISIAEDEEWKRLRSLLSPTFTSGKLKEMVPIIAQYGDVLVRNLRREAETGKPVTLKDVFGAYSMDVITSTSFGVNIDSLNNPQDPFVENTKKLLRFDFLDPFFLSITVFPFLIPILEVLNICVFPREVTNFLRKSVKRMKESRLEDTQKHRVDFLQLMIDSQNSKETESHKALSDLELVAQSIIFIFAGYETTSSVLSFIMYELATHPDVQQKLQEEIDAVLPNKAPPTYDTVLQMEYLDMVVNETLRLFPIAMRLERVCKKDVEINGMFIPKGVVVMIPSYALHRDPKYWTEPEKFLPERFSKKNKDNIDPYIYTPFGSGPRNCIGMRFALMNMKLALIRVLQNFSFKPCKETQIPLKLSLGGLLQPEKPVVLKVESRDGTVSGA

A further series addresses CYP 2C9 (Homo sapiens, UniProt P11712). Nature of the series: CYP inhibition, cocktail-substrate method in HLM. Type of series: in vitro ADME. More on the design: 0.5 mg/mL HLM, 1 mmol/L NADPH, and a cocktail of 10 probe substrates for 9 CYP isoforms; tissue BD (Woburn, USA); host or cells: pooled human liver microsomes. The conditions noted are these: probe tolbutamide. How it is done: as §1

SMILES strings stand for the structures.

For 1 molecule, Papp A→B, Papp B→A and IC50 results are on record in publication PMC11579541, “In vitro, in vivo, and in silico approaches for evaluating the preclinical DMPK profiles of ammoxetine, a novel chiral serotonin and norepinephrine reuptake inhibitor” (Frontiers in Pharmacology, 2024).

As a reminder, the Papp A→B is the apparent permeability from the apical to the basolateral side of a cell layer. Lower therefore signals slow passage. By Papp B→A is commonly meant how fast a substance crosses the layer from the basolateral side. A word on the IC50: it is the concentration that inhibits the measured activity by half.

Sequence of CYP 2C9 (P11712 whole entry, canonical isoform): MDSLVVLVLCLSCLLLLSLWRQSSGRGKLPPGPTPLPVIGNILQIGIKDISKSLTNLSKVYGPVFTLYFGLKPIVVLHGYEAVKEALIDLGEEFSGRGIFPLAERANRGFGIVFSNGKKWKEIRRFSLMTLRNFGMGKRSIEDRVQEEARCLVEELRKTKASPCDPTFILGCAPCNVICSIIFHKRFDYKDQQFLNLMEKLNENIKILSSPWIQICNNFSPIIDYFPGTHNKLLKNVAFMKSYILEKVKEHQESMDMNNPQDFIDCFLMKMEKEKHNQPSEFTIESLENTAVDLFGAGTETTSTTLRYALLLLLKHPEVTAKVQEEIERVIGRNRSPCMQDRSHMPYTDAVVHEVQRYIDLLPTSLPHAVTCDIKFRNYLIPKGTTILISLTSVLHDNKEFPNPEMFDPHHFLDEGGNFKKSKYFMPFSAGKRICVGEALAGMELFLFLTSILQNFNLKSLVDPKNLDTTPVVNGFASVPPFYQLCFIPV

Turning to `CNCC[C@H](Oc1cccc2c1OCO2)c1cccs1` [ammoxetine], in series [1] (0.2 μg/mL), the Papp A→B at 2 h, 0.2 μg/mL was found to be 15.8 ± 2.83 ×10⁻⁶ cm/s and the Papp B→A at 2 h, 0.2 μg/mL is 26.5 ± 5.3 ×10⁻⁶ cm/s. Further, in series [1] (1 μg/mL), the apparent permeability from apical to basolateral (Papp A→B) at 2 h, 1 μg/mL turned out to be 6.61 ± 0.555 ×10⁻⁶ cm/s and the Papp B→A at 2 h, 1 μg/mL stood at 11.5 ± 2.93 ×10⁻⁶ cm/s. Besides, in series [1] (5 μg/mL), the Papp A→B at 2 h, 5 μg/mL worked out at 13.2 ± 1.26 ×10⁻⁶ cm/s and the basolateral-to-apical permeability (Papp B→A) at 2 h, 5 μg/mL worked out at 25.2 ± 3.49 ×10⁻⁶ cm/s. On CYP 3A4, this molecule registered an IC50 of more than 100 µM. This molecule also showed an IC50 on CYP 2C9 of more than 100 µM.
